Consider twelve molecules from patent publication US4732892A, “L-α-amino acids as transdermal penetration enhancers” (priority 1985, dated 1988).

Data set [1] can be described thus: in vitro penetration of levonorgestrel across hairless mouse skin, modified Franz diffusion cell. The text has this: In the examples, the steady state rate of penetration, or flux, is indicated by the symbol: Jss. The cumulative amount of drug penetrated is indicated by the Symbol: Q. The lag period to reach steady state is indicated by the symbol: tL. The standard deviation for statistical purposes is abbreviated: S.D. The standard error of the mean for statistical purposes is abbreviated S.E.M. Abbreviation "g" denotes grams, "mg" denotes milligram, "mcg" denotes micrograms and "ng" denotes nanograms.
Initially, twelve amino acids were selected for evaluation of their effect on the rate of penetration of levonorgestrel through hairless mouse skin. Differing amino acids were selected according to the structure of their side chain so that at least one amino acid from each of the seven different chemical groups was studied. […] These were incorporated into transdermal drug formulations and the corresponding rates of penetration were determined. […] A total of 36 out of a possible 48 formulations were evaluated. The effect of amino acid, pH and ionic species on the rate of penetration was then analyzed.
The amino acids were dissolved in distilled water and the pH was adjusted by addition of either 0.1 or 1.ON HCl or 1.0N NaOH. Ethanol was then added to give a final ethanol concentration of 40% w/w. The pH was monitored and recorded. […] 1%(w/w) levonorgestrel was suspended in this solvent system. Suspensions were applied to hairless mouse skin as described above.
The penetration of drug across hairless mouse skin was studied in vitro using a modified Franz diffusion cell apparatus as described by Y. W. Chien, P. R. Keshary, Y. C. Huany and P. P. Sarpotdar in "Comparative Controlled Skin Permeation of Nitroglycerin from Marketed Transdermal Delivery Systems," J. Pharmaceutical Sciences, Vol. 72, No. 8 August 1983, pp. 968-970. […] Samples were withdrawn at predetermined times up to a total of 10 hours.
Subsequently, rates of penetration were also determined (in hairless mouse skin a described above) for Norleucine, Norvaline and α-Amino-n-Butyric Acid.

For data set [2] the following is noted: pH values at which amino acids were tested; cited from earlier work.
[3] abbreviates: Table II, average of all data at all pH values, amino acid 0.2 M.

SMILES strings stand for the structures. Read-outs that look alike come from different tables or passages of the source.

Regarding `C[C@H](N)C(=O)O` [Alanine, L-Alanine], the “Jss, steady state rate of penetration of levonorgestrel” value (from here on “Jss, steady state rate”) in data set [1] and in data set [1] (pH 4.8) was 0.8553 mcg/cm^2 /hr each time.
With `N=C(N)NCCC[C@H](N)C(=O)O` [Arginine, L-(+)-Arginine], the “Jss, steady state rate” value came to 0.8864 mcg/cm^2 /hr in data set [1] (setting [3]); 1.012 mcg/cm^2 hr in data set [1] (Table VI, at pK2', pH 10.8); 0.688 mcg/cm^2 /hr in data set [1] (pH 2.9); 0.9590 mcg/cm^2 /hr in data set [1] (pH 4.2); 1.012 mcg/cm^2 /hr in data set [1] (pH 10.8). Further, the “pHISO (isoelectric pH)” value in data set [2] is 10.8.
Turning to `N[C@@H](CC(=O)O)C(=O)O` [Aspartic Acid, L-(+)-Aspartic Acid], the “Jss, steady state rate” value in data set [1] (setting [3]) and in data set [1] (pH 4.4) was 1.1538 mcg/cm^2 /hr each time.
For `N[C@@H](CS)C(=O)O` [Cysteine, L-(+)-Cysteine], the “Jss, steady state rate” value in data set [1] amounted to 1.6160 mcg/cm^2 /hr; in data set [1] (pH 2.3), 2.154 mcg/cm^2 /hr; in data set [1] (pH 4.9) it was 1.1635 mcg/cm^2 /hr. Moreover, the “effect on penetration at specific pHs, in words” value (shortened to “effect on penetration”) in data set [1] (Tables III-VI) is “greatest affect on penetration”. The “overall rate of penetration of levonorgestrel, ranking in words” value in data set [1] (average of all pH values, P=0.05) is listed as “provided the highest rates”. Besides, the entries for the “rate of penetration of levonorgestrel, ranking in words” value in data set [1] (pH 2.3 to 3.2 (pK1')) and in data set [1] (pK2' (pH 8.6-10.8)) were “significantly increased rate” and “fastest rate of penetration”, respectively.
Regarding `N[C@@H](CCC(=O)O)C(=O)O` [Glutamic Acid, L-Glutamic Acid], the “Jss, steady state rate” value is recorded as 0.8277 mcg/cm^2 /hr in data set [1] (Table II, average of all data at all pH values, amino acid 0.03 M); 0.450 mcg/cm^2 hr in data set [1] (Table VI, at pK2', pH 9.9); 0.842 mcg/cm^2 /hr in data set [1] (pH 3.8); 1.1910 mcg/cm^2 /hr in data set [1] (pH 4.6); 0.450 mcg/cm^2 /hr in data set [1] (pH 9.9). In addition, in data set [1] (pH between 4.0 and 5.0), the “rate of penetration of levonorgestrel (in words)” value was “relatively high rates of penetration”. The “pHISO (isoelectric pH)” value in data set [2] is recorded as 3.8.
For the molecule `NCC(=O)O` [Glycine], the “effect of hundred-fold concentration difference on rate of penetration” value in data set [1] (Glycine buffer, previous experimentation) is listed as “no significant difference in the rate of penetration”. In addition, the “Jss, steady state rate” value is listed as 1.003 mcg/cm^2 hr in data set [1] (Table VI, at pK2', pH 9.6); 0.557 mcg/cm^2 /hr in data set [1] (pH 2.4); 1.2790 mcg/cm^2 /hr in data set [1] (pH 4.7); 0.532 mcg/cm^2 /hr in data set [1] (pH 6.0); 1.003 mcg/cm^2 /hr in data set [1] (pH 9.6).
On to `CC[C@H](C)[C@H](N)C(=O)O` [Isoleucine, L-(+)-Isoleucine], for which, in data set [1], the “Jss, steady state rate” value was 1.5542 mcg/cm^2 /hr; the “effect on penetration” value is listed as “greatest affect on penetration”; the “overall rate of penetration of levonorgestrel, ranking in words” value is recorded as “provided the highest rates”; the “rate of penetration of levonorgestrel (in words)” value was “relatively high rates of penetration”. Further, in data set [1] (pH 2.4), the “Jss, steady state rate” value is reported as 0.921 mcg/cm^2 /hr. For the same molecule, the “Jss, steady state rate” value in data set [1] (pH 4.5) amounted to 1.3328 mcg/cm^2 /hr. Besides, the “Jss, steady state rate” value in data set [1] (pH 6) worked out at 3.167 mcg/cm^2 /hr.
In the case of `C#C[C@]1(O)CC[C@H]2[C@@H]3CCC4=CC(=O)CC[C@@H]4[C@H]3CC[C@@]21CC` [Levonorgestrel, reference compound], the “effect of pH on rate of penetration” value in data set [1] (amino acid present in the formulation) is reported as “not affected significantly by changing pH”. The “Average rate of penetration of levonorgestrel in the presence of amino acids” value in data set [1] (pH 2.5) amounted to 1.0980 mcg/cm^2 /hr; in data set [1] (pH 4.5) it was 1.1279 mcg/cm^2 /hr; in data set [1] (pH 6.1) it was 1.2798 mcg/cm^2 /hr; in data set [1] (pH 9.6), 1.0598 mcg/cm^2 /hr.
Consider `O=C(O)[C@@H]1CCCN1` [Proline, L-(-)-Proline], for which the “Jss, steady state rate” value in data set [1] turned out to be 0.8462 mcg/cm^2 /hr; in data set [1] (pH 2.3), 0.765 mcg/cm^2 /hr; in data set [1] (pH 4.6), 1.0863 mcg/cm^2 /hr; in data set [1] (pH 6.7), 0.688 mcg/cm^2 /hr.
In the case of `N[C@@H](CO)C(=O)O` [Serine, L-(-)-Serine], the “Jss, steady state rate” value in data set [1] was 0.8628 mcg/cm^2 /hr; in data set [1] (pH 4.7) it was 1.1287 mcg/cm^2 /hr; in data set [1] (pH 5.7), 0.896 mcg/cm^2 /hr.
As for `N[C@@H](Cc1c[nH]c2ccccc12)C(=O)O` [Tryptophan, L-(-)-Tryptophan], the “Jss, steady state rate” value in data set [1] is 0.6033 mcg/cm^2 /hr; in data set [1] (pH 3.2) it was 0.641 mcg/cm^2 /hr; in data set [1] (pH 4.7), 0.6020 mcg/cm^2 /hr; in data set [1] (pH 6.5) it was 0.567 mcg/cm^2 /hr.
In the case of `CC(C)[C@H](N)C(=O)O` [Valine, L-(+)-Valine], the “Jss, steady state rate” value was found to be 1.8006 mcg/cm^2 /hr in data set [1], 1.492 mcg/cm^2 /hr in data set [1] (pH 2.4), 1.7903 mcg/cm^2 /hr in data set [1] (pH 4.7) and 2.276 mcg/cm^2 /hr in data set [1] (pH 5.9). Also, the “effect on penetration” value in data set [1] is on record as “greatest affect on penetration”.
